The text below walks through data of patent publication US6977262B2, “Dihydropyrazolopyridine compounds and pharmaceutical use thereof” (Mitsubishi Pharma Corporation, priority 2001, dated 2005).

The structures appear in SMILES notation. Some results are limits rather than exact numbers.

For orientation: melting point means the temperature, or range, at which the solid turns liquid. In turn, `CCCC1=C(C(=O)OCC)C(c2c(OC)ccc3ccccc23)c2c[nH]nc2N1` (centres unmarked) [Example 68, Ethyl 4,7-dihydro-4-(2-methoxynaphthalen-1-yl)-6-propyl-2H-pyrazolo[3,4-b]pyridine-5-carboxylate] yielded a melting point of 188 to 191 °C.
To `CCCC1=C(C(=O)OCC)C(c2cccc3c2OCC=C3)c2c[nH]nc2N1` (centres unmarked) [Example 72, Ethyl 4-(2H-1-benzopyran-8-yl)-4,7-dihydro-6-propyl-2H-pyrazolo[3,4-b]pyridine-5-carboxylate] belongs 194 °C; to `CCCC1=C(C(=O)OCC)C(c2cccc3c2OCCC3)c2c[nH]nc2N1` (centres unmarked) [Example 73, Ethyl 4-(3,4-dihydro-2H-benzopyran-8-yl)-4,7-dihydro-6-propyl-2H-pyrazolo[3,4-b]pyridine-5-carboxylate], 208 °C; to `CCCC1=C(C(=O)OCC)C(c2ccnc3ccccc23)c2c[nH]nc2N1` (centres unmarked) [Example 74, Ethyl 4,7-dihydro-6-propyl-4-(quinolin-4-yl)-2H-pyrazolo[3,4-b]pyridine-5-carboxylate], 198 °C.
The value for `CCCC1=C(C(=O)OCC)C(c2csc3ccccc23)c2c[nH]nc2N1` (centres unmarked) [Example 75, Ethyl 4-(benzo[b]thiophen-3-yl)-4,7-dihydro-6-propyl-2H-pyrazolo[3,4-b]pyridine-5-carboxylate] was 222 °C; that for `CCCC1=C(C(=O)OCC)C(c2cccc3nonc23)c2c[nH]nc2N1` (centres unmarked) [Example 76, Ethyl 4-(2,1,3-benzoxadiazol-4-yl)-4,7-dihydro-6-propyl-2H-pyrazolo[3,4-b]pyridine-5-carboxylate] was 207 °C.
The value for `CCCC1=C(C(=O)OCC)C(c2ccc3c(c2)OCCO3)c2c[nH]nc2N1.O=C(O)/C=C\C(=O)O` (centres unmarked) [Example 80, Ethyl 4-(2,3-dihydro-1,4-benzodioxin-6-yl)-4,7-dihydro-6-propyl-2H-pyrazolo[3,4-b]pyridine-5-carboxylate maleate] was 147 to 149 °C.
`CCCC1=C(C(=O)OCC)C(c2cc3ccccc3o2)c2c[nH]nc2N1.O=C(O)/C=C\C(=O)O` (centres unmarked) [Example 81, Ethyl 4-(benzo[b]furan-2-yl)-4,7-dihydro-6-propyl-2H-pyrazolo[3,4-b]pyridine-5-carboxylate maleate] registered a melting point of 123 to 125 °C.
On to `CCOC(=O)C1=C(CC)Nc2n[nH]cc2C1c1ccccc1Cl` (centres unmarked) [Example 82, Ethyl 4-(2-chlorophenyl)-6-ethyl-4,7-dihydro-2H-pyrazolo[3,4-b]pyridine-5-carboxylate], for which the melting point amounted to 213 °C.
In turn, `CCCCC1=C(C(=O)OCC)C(c2ccccc2Cl)c2c[nH]nc2N1` (centres unmarked) [Example 83, Ethyl 6-butyl-4-(2-chlorophenyl)-4,7-dihydro-2H-pyrazolo[3,4-b]pyridine-5-carboxylate] came in with a melting point of 209 °C.
The value for `COCC1=C(C(=O)OC)C(c2ccccc2Cl)c2c[nH]nc2N1` (centres unmarked) [Example 84, Methyl 4-(2-chlorophenyl)-4,7-dihydro-6-methoxymethyl-2H-pyrazolo[3,4-b]pyridine-5-carboxylate] was 160 °C; that for `CCOC(=O)C1=C(c2ccccc2)Nc2n[nH]cc2C1c1ccccc1Cl` (centres unmarked) [Example 85, Ethyl 4-(2-chlorophenyl)-4,7-dihydro-6-phenyl-2H-pyrazolo[3,4-b]pyridine-5-carboxylate] was 214 °C.
To `CCOC(=O)C1=C(c2ccc(OC)cc2)Nc2n[nH]cc2C1c1ccccc1Cl` (centres unmarked) [Example 86, Ethyl 4-(2-chlorophenyl)-4,7-dihydro-6-(4-methoxyphenyl)-2H-pyrazolo[3,4-b]pyridine-5-carboxylate] belongs 211 °C.
`CCOC(=O)C1=C(c2cccs2)Nc2n[nH]cc2C1c1ccccc1Cl` (centres unmarked) [Example 87, Ethyl 4-(2-chlorophenyl)-4,7-dihydro-6-(thiophen-2-yl)-2H-pyrazolo[3,4-b]pyridine-5-carboxylate] had a melting point of 200 °C.
To `CCOC(=O)C1=C(Cc2ccccc2)Nc2n[nH]cc2C1c1ccccc1Cl` (centres unmarked) [Example 88, Ethyl 6-benzyl-4-(2-chlorophenyl)-4,7-dihydro-2H-pyrazolo[3,4-b]pyridine-5-carboxylate] belongs 247 °C; to `CCOC(=O)C1=C(CC)Nc2n[nH]cc2C1c1ccccc1OC` (centres unmarked) [Example 89, Ethyl 6-ethyl-4,7-dihydro-4-(2-methoxyphenyl)-2H-pyrazolo[3,4-b]pyridine-5-carboxylate], 169 °C.
To `CCCCC1=C(C(=O)OCC)C(c2ccccc2OC)c2c[nH]nc2N1` (centres unmarked) [Example 90, Ethyl 6-butyl-4,7-dihydro-4-(2-methoxyphenyl)-2H-pyrazolo[3,4-b]pyridine-5-carboxylate] belongs 190 °C.
The value for `COCC1=C(C(=O)OC)C(c2ccccc2OC)c2c[nH]nc2N1` (centres unmarked) [Example 91, Methyl 4,7-dihydro-6-methoxymethyl-4-(2-methoxyphenyl)-2H-pyrazolo[3,4-b]pyridine-5-carboxylate] was 186 °C; that for `CCOC(=O)C1=C(c2ccccc2)Nc2n[nH]cc2C1c1ccccc1OC` (centres unmarked) [Example 92, Ethyl 4,7-dihydro-4-(2-methoxyphenyl)-6-phenyl-2H-pyrazolo[3,4-b]pyridine-5-carboxylate] was 195 °C.
`CCCC1=C([N+](=O)[O-])C(c2ccccc2Cl)c2c[nH]nc2N1` (centres unmarked) [Example 93, 4-(2-Chlorophenyl)-4,7-dihydro-5-nitro-6-propyl-2H-pyrazolo[3,4-b]pyridine]: the melting point is 228 °C.
To `CCCC1=C(C#N)C(c2ccccc2Cl)c2c[nH]nc2N1` (centres unmarked) [Example 94, 4-(2-Chlorophenyl)-5-cyano-4,7-dihydro-6-propyl-2H-pyrazolo[3,4-b]pyridine] belongs 248 °C; to `COc1ccc(C2=C(C#N)C(c3ccccc3Cl)c3c[nH]nc3N2)cc1` (centres unmarked) [Example 95, 4-(2-Chlorophenyl)-5-cyano-4,7-dihydro-6-(4-methoxyphenyl)-2H-pyrazolo[3,4-b]pyridine], 124 °C.
To `O=C1OCC2=C1C(c1ccccc1Cl)c1c[nH]nc1N2` (centres unmarked) [Example 96, 4-(2-Chlorophenyl)-2,4,7,8-tetrahydrofurano[3,4-b]pyrazolo[4,3-e]pyridin-5-one] belongs over 270 °C.
`CCCC1=C(C(=O)OCC)C(c2ccccc2O)c2c[nH]nc2N1` (centres unmarked) [Example 98, Ethyl 4,7-dihydro-4-(2-hydroxyphenyl)-6-propyl-2H-pyrazolo[3,4-b]pyridine-5-carboxylate] registered a melting point of 177 °C.
Compound `CCCC1=C(C(=O)OCC)C(c2ccccc2N)c2c[nH]nc2N1` (centres unmarked) [Example 99, Ethyl 4-(2-aminophenyl)-4,7-dihydro-6-propyl-2H-pyrazolo[3,4-b]pyridine-5-carboxylate] showed a melting point of 179 °C.
To `CCCC1=C(C(=O)OCC)C(c2ccccc2CC)c2cn[nH]c2N1` (centres unmarked) [Example 100, Ethyl 4-(2-ethylphenyl)-4,7-dihydro-6-propyl-1H-pyrazolo[3,4-b]pyridine-5-carboxylate] belongs 186 °C.
The compound `CCCC1=C(C(=O)OCC)C(c2ccccc2CCC)c2cn[nH]c2N1` (centres unmarked) [Example 101, Ethyl 4,7-dihydro-6-propyl-4-(2-propylphenyl)-1H-pyrazolo[3,4-b]pyridine-5-carboxylate] came in with a melting point of 197 °C.
The value for `CCCCc1ccccc1C1C(C(=O)OCC)=C(CCC)Nc2[nH]ncc21` (centres unmarked) [Example 102, Ethyl 4-(2-butylphenyl)-4,7-dihydro-6-propyl-1H-pyrazolo[3,4-b]pyridine-5-carboxylate] was 175 °C.
To `CCCC1=C(C(=O)OCC)C(c2cccc3c2CCC3)c2c[nH]nc2N1` (centres unmarked) [Example 103, Ethyl 4,7-dihydro-4-(indan-4-yl)-6-propyl-2H-pyrazolo[3,4-b]pyridine-5-carboxylate] belongs 181 to 183 °C; to `CCCC1=C(C(=O)OCC)C(c2cccc3ccsc23)c2c[nH]nc2N1` (centres unmarked) [Example 106, Ethyl 4-(benzo[b]thiophen-7-yl)-4,7-dihydro-6-propyl-2H-pyrazolo[3,4-b]pyridine-5-carboxylate], 166 °C.
The value for `CCCC1=C(C(=O)OCC)C(C)(c2ccccc2)c2c[nH]nc2N1` (centres unmarked) [Example 108, Ethyl 4,7-dihydro-4-methyl-4-phenyl-6-propyl-2H-pyrazolo[3,4-b]pyridine-5-carboxylate] was 207 °C; that for `CCCC1=C(C(=O)OCC)C(c2cccc(Cl)c2C)c2c[nH]nc2N1` (centres unmarked) [Example 111, Ethyl 4-(3-chloro-2-methylphenyl)-4,7-dihydro-6-propyl-2H-pyrazolo[3,4-b]pyridine-5-carboxylate] was 185 °C; that for `CCCC1=C(C(=O)OCC)C(c2cccc3nsnc23)c2c[nH]nc2N1` (centres unmarked) [Example 112, Ethyl 4-(2,1,3-benzothiadiazol-4-yl)-4,7-dihydro-6-propyl-2H-pyrazolo[3,4-b]pyridine-5-carboxylate] was 180 °C.
Consider `CCOC(=O)C1=C(C)Nc2n[nH]cc2C1c1cccc2nonc12` (centres unmarked) [Example 113, Ethyl 4-(2,1,3-benzoxadiazol-4-yl)-4,7-dihydro-6-methyl-2H-pyrazolo[3,4-b]pyridine-5-carboxylate], for which the melting point turned out to be 228 °C.
The value for `CCOC(=O)C1=C(c2ccccc2)Nc2n[nH]cc2C1c1cccc2nonc12` (centres unmarked) [Example 114, Ethyl 4-(2,1,3-benzoxadiazol-4-yl)-4,7-dihydro-6-phenyl-2H-pyrazolo[3,4-b]pyridine-5-carboxylate] was 190 °C; that for `CCCC1=C([N+](=O)[O-])C(c2ccccc2Br)c2c[nH]nc2N1` (centres unmarked) [Example 118, 4-(2-Bromophenyl)-4,7-dihydro-5-nitro-6-propyl-2H-pyrazolo[3,4-b]pyridine] was 226 °C.
The value for `CCCC1=C([N+](=O)[O-])C(c2ccccc2OC)c2c[nH]nc2N1` (centres unmarked) [Example 119, 4,7-Dihydro-4-(2-methoxyphenyl)-5-nitro-6-propyl-2H-pyrazolo[3,4-b]pyridine] was 223 °C; that for `CCCC1=C([N+](=O)[O-])C(c2ccccc2SC)c2c[nH]nc2N1` (centres unmarked) [Example 120, 4,7-Dihydro-4-(2-methylthiophenyl)-5-nitro-6-propyl-2H-pyrazolo[3,4-b]pyridine] was 211 °C.
